The source of these data is patent publication US9556226B2, “Peptides with antifungal activity and methods of using the peptides” (THE BOARD OF TRUSTEES OF THE UNIVERSITY OF ARKANSAS, priority 2013, dated 2017).

The nature of data set [1]: protein binding evaluation using bovine calf serum (disulfide bond stability). Format: in vitro ADME. An excerpt: To alleviate that difficulty, two additional peptides were synthesized, KM23 and KM29. The KM23 peptide was identical in sequence to KM12 except the cysteine residues were removed resulting in a peptide with the sequence Y -K-R-K-F-F-K-R-K-Y (SEQ ID NO: 3). Since there were two phenylalanines at the center of this symmetrical peptide another peptide, designated KM29 was synthesized to yield the symmetric peptide Y-K-R-K-F-K-R-K-Y (SEQ ID NO: 4) with one phenylalanine at the center.

The subject of data set [2] is CD1 mice. Nature of the data set: Acute toxicity testing in CD1 mice (up-down protocol). Format: in vivo. The conditions noted are these: for signs observed on tested animals: IV. The method, then: To evaluate acute toxicity in animals, CD1 outbred mice were injected via tail vein with either KM12 or KM14 using a standard up-down concentration protocol and observed for any symptoms consistent with the toxicity of the peptides (Table 4). Mice were initially injected with KM12 or KM14 at a concentration of 8 mg/kg. […] Thus the KM12 peptide was deemed safe for animals at concentrations up to 10 mg/kg and the use of 5% glucose versus phosphate-buffered saline was deemed safer for administration to the animals. We will continue to evaluate acute toxicity with other KM peptides (i.e. KM23 and KM29) that show excellent promise as antifungal compounds. In addition, we plan to evaluate these peptides for treatment of superficial mucosal infections with Candida species.
(§1) Animal Studies: For the animal studies, CD-1 mice of 8-25 grams were injected with the antifungal peptides dissolved in either phosphate-buffered saline or 5% glucose. Peptide concentrations used for the injection of mice were chosen using a standard up-down protocol starting at 8 mg/kg. Peptides were injected into mice intravenously, intramuscularly, or intraperitoneally as indicated. The mice were closely monitored lbr signs of distress after injection. After two hours of continuous monitoring, the mice were evaluated daily for two weeks and necropsies performed after two weeks. For evaluating the immunogenicity of the peptides, mice were injected with peptides at a concentration of 10 mg/kg in 5% glucose. The routes of injection were intravenous, intramuscular, or intraperitoneal. Five mice were injected with the peptide per route of injection. The mice were injected with the same dose of peptide once per month for four months. The mice were monitored for signs of distress after each injection. At the end of the fifth month, the mice were euthanized by an overdose of anesthesia and the serum was collected from each mouse individually as assay for activity against the peptide using dot blots.

Data set [3] has as its system CD1 mice. Nature of the data set: Immunogenicity in mice, serum dot blot for antibodies against the peptide. Type of data set: in vivo. As to the method: Small peptides have the potential to induce an immune response when used for therapeutic purposes. To examine this possibility, mice were injected once per month for four months with 10 mg/kg of the KM12 peptide either by intravenous, intramuscular, or intraperitoneal route. After the fifth month, the mice were euthanized and the serum collected and tested by dot blot analysis for antibodies directed against the KM12 peptide. For each route of injection, five CD1 mice were used. […] It is plausible that the smaller size of those peptides may not elicit an immune response, yet be effect as antifungals. Such studies are currently underway on KM23 and KM29.
as §1

For the molecule `CC(=O)N[C@@H](CSSC[C@H](NC(C)=O)C(=O)N[C@@H](Cc1ccccc1)C(=O)N[C@@H](CCCCN)C(=O)N[C@@H](CCCNC(=N)N)C(=O)N[C@@H](CCCCN)C(=O)N[C@@H](Cc1ccc(O)cc1)C(N)=O)C(=O)N[C@@H](Cc1ccccc1)C(=O)N[C@@H](CCCCN)C(=O)N[C@@H](CCCNC(=N)N)C(=O)N[C@@H](CCCCN)C(=O)N[C@@H](Cc1ccc(O)cc1)C(N)=O` [KM12, Y-K-R-K-F-C-----C-F-K-R-K-Y], the “stability of the disulfide bond in bovine calf serum” value in data set [1] is listed as “readily reduced”. Further, the “signs observed on tested animals” value in data set [2] (8 mg/kg, in PBS, CD1 mice) was “no toxicity and None”; in data set [2] (10 mg/kg, IM, IP, in 5% glucose, CD1 mice (n = 15)), “no major toxicity and None”; in data set [2] (10 mg/kg, in PBS, CD1 mice (n = 5)) it was “None”; in data set [2] (16 mg/kg, in 5% glucose, CD1 mice (n = 2)) it was “Convulsion, no death”. In addition, the “dosage deemed safe / well-tolerated in mice” value in data set [2] (intravenous, intramuscular or intraperitoneal route) is “up to 10 mg/kg”. Also, the “mice displaying a weak immune response (antibodies against the peptide)” value in data set [3] (10 mg/kg once per month for four months, intramuscular injection) is 1/5. Moreover, the “mice displaying an immune response (antibodies against the peptide)” value in data set [3] (10 mg/kg once per month for four months, intraperitoneal injection) is reported as 0/5. Also, the “mice showing a moderate immune response (antibodies against the peptide)” value in data set [3] (10 mg/kg once per month for four months, intravenous injection) is given as 1/5. Further, the “immunogenicity (overall, in words)” value in data set [3] (CD1 mice, 10 mg/kg monthly, IV, IM or IP) is reported as “weakly immunogenic”.
